Measured values taken from patent publication US11712436B2, “Theranostic test for antifungal treatment of inflammatory diseases” (Cornell University, priority 2017, dated 2023).

Tests used:
intestinal fungi = test: DSS colitis in ΔCX3CR1 mice with fungal targeting by fluconazole; type: in vivo; conditions: 3% DSS in drinking water, fluconazole 0.5 mg/ml in drinking water starting 4 days prior the first DSS dose, FIG. 3E-G
Method: Cx3cr1^GFP/GFP, C57BL/6J, Cd11c-cre^+/+, Irf4^fl/fl, Cx3cr1^tm3(DTR)Litt/J (Cx3cr1^DTR), Syk^fl/fl, Cx3cr1^tm2.1(cre/ERT2)Jung/J (Cx3cr1-cre/ERT2^+/+), Batf3^−/−, Thy1.1, and OVA-specific CD4^+ (OT-II) T-cell receptor-transgenic (H-2^b) mice were purchased from the Jackson Laboratories (Bar Harbor, Me.). […]. For depletion, mice generated through such breeding (Cd11c-cre^+/− Cx3cr1^DTR mice) and the respective littermate controls (Cd11c-cre^−/− Cx3cr1^DTR) were injected for three consecutive days with 100 ng of DT i.p followed by maintenance injection every other day for the length of the experiments. Depleted mice were designated throughout the study as ΔCX3CR1 mice. Irf4^fl/fl mice were bred to hemizygous Cd11c-cre^+/− mice to allow for genetic ablation of CD11c^+ CD11b^+ CD103^+ dendritic cells (Cd11c-cre^+/− Irf4^fl/fl mice, designated throughout the study as ΔIrf4 mice) and the generation of littermate controls (Cd11c-cre^−/− Irf4^fl/fl mice). Syk^fl/fl mice were bred to Cx3cr1-cre/ERT2^+/+ to allow for the selective depletion of Syk in CX3CR1 expressing cells upon administration of tamoxifen. […]
Cx3cr1^DTR or littermate control mice were injected with DT for three consecutive days, prior to the induction of colitis with 3% (w/v) Dextran sulfate sodium (DSS, MP Biomedicals, LLC, Aurora, Ohio) in the drinking water. […] Body weight and the presence of occult blood were assessed daily. […]

[1] = system: most Candida species and other dimorphic fungi; conditions: when used during the onset of intestinal disease; cited from earlier work

OC(Cn1cncn1)(Cn1cncn1)c1ccc(F)cc1F [fluconazole]
intestinal disease (DSS colitis: body weight change, neutrophil infiltration in colonic LP, H&E histology) (intestinal fungi): significantly ameliorated intestinal disease | colitis in mice with defects in antifungal immunity [1]: ameliorates colitis
